Data as given in PMC8562569 (Nature cancer, 2021).

Target: PIKfyve (Homo sapiens, UniProt Q9Y2I7)
Assay: cellular thermal shift assay in VCaP cells, […], […] h
Assay type: cell-based

Sequence of PIKfyve (Q9Y2I7 2-2098): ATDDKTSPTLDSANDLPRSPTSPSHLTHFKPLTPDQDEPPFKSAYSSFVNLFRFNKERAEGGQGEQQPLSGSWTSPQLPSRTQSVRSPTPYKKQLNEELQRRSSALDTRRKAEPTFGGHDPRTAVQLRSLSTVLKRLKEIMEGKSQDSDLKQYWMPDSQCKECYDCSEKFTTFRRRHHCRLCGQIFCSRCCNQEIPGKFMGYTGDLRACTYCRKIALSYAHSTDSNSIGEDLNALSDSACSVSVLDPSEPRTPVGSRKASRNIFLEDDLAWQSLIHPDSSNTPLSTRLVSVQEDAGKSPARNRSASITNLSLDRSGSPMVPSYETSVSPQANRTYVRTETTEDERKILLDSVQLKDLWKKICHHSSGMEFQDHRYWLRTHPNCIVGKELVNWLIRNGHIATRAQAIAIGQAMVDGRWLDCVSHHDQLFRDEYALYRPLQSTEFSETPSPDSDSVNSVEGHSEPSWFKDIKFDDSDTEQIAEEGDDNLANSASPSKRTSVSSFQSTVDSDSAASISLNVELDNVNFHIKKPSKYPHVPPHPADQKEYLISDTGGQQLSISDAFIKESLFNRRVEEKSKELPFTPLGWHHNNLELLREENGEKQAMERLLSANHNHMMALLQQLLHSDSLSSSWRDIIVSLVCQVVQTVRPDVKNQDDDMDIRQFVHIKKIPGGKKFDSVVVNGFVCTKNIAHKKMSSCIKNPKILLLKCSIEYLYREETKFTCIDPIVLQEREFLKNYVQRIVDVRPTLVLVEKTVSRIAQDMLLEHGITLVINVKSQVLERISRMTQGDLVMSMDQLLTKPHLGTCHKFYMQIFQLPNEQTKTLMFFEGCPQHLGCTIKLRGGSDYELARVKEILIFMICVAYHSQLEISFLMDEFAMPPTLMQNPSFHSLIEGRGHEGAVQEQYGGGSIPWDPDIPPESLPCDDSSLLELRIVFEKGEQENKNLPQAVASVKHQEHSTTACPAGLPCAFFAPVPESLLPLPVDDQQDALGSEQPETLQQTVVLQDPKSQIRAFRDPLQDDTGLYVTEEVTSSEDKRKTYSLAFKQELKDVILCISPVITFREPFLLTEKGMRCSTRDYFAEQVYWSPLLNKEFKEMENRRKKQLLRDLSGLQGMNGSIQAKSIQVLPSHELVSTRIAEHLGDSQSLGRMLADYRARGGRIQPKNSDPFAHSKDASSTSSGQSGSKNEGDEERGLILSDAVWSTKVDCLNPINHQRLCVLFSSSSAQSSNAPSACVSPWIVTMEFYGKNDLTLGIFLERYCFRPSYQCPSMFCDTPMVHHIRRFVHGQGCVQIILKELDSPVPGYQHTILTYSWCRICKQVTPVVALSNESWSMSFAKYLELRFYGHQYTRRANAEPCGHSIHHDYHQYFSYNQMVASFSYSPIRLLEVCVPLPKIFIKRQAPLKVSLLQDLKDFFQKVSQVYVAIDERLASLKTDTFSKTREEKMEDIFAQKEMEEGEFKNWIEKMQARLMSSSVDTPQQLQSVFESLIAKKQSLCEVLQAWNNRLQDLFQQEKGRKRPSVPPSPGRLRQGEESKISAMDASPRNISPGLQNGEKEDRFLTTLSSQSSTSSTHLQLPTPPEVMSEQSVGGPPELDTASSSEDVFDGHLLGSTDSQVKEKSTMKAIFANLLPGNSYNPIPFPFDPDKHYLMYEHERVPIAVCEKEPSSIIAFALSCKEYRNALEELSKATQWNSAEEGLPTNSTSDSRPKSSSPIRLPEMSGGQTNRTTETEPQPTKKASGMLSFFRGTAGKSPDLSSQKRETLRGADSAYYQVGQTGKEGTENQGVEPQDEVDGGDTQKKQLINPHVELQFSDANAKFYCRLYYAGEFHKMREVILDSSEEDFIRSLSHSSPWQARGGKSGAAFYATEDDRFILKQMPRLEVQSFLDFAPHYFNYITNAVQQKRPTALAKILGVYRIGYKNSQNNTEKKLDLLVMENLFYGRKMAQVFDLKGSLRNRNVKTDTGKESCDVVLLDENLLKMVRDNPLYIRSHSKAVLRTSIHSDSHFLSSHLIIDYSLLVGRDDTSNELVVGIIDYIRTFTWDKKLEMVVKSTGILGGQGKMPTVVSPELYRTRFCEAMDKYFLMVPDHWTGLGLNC

Cc1cccc(/C=N/Nc2cc(N3CCOCC3)nc(OCCc3ccccn3)n2)c1 [apilimod]
cellular thermal shift assay in VCaP cells, 1 μM, 2 h: cellular thermal shift assay in VCaP cells, with the known PIKfyve inhibitor apilimod serving as a positive control
